Measurements: PubChem BioAssay (NCI)
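Five concentrations, 48 hours, 96-well plates. TGI marks complete inhibition of growth.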

Key:
Assay in all cases: NCI anticancer screen, dose series, 48 h
OVCAR-5 ovarian = tested on: OVCAR-5 ovarian
RPMI-8226 leukemia = tested on: RPMI-8226 leukemia
A549 NSCLC = tested on: A549 NSCLC
CAKI-1 renal = tested on: CAKI-1 renal
SK-MEL-5 melanoma = tested on: SK-MEL-5 melanoma
SNB-19 CNS = tested on: SNB-19 CNS
NCI-H226 lung = tested on: NCI-H226 lung
SNB-75 CNS = tested on: SNB-75 CNS
MDA-N = tested on: MDA-N
NCI/ADR-RES ovarian = tested on: NCI/ADR-RES ovarian
CCRF-CEM leukemia = tested on: CCRF-CEM leukemia
HL-60(TB) leukemia = tested on: HL-60(TB) leukemia
MCF7 breast = tested on: MCF7 breast
SW-620 colon = tested on: SW-620 colon
A498 renal = tested on: A498 renal
NCI-H23 lung = tested on: NCI-H23 lung
EKVX NSCLC = tested on: EKVX NSCLC
KM12 colon = tested on: KM12 colon
MDA-MB-435 = tested on: MDA-MB-435
LOX IMVI melanoma = tested on: LOX IMVI melanoma
K-562 leukemia = tested on: K-562 leukemia
HCC-2998 colon = tested on: HCC-2998 colon
SF-295 CNS = tested on: SF-295 CNS
HCT-116 colon = tested on: HCT-116 colon
NCI-H460 lung = tested on: NCI-H460 lung
OVCAR-8 ovarian = tested on: OVCAR-8 ovarian
MDA-MB-231 breast = tested on: MDA-MB-231 breast
IGROV1 ovarian = tested on: IGROV1 ovarian
HT29 colon = tested on: HT29 colon
DU-145 prostate = tested on: DU-145 prostate
OVCAR-4 ovarian = tested on: OVCAR-4 ovarian
U251 CNS = tested on: U251 CNS
786-0 renal = tested on: 786-0 renal
HCT-15 colon = tested on: HCT-15 colon
HOP-62 NSCLC = tested on: HOP-62 NSCLC
UACC-257 melanoma = tested on: UACC-257 melanoma
ACHN renal = tested on: ACHN renal
UO-31 renal = tested on: UO-31 renal
MALME-3M melanoma = tested on: MALME-3M melanoma
COLO 205 colon = tested on: COLO 205 colon
HOP-92 NSCLC = tested on: HOP-92 NSCLC
HS 578T breast = tested on: HS 578T breast
BT-549 breast = tested on: BT-549 breast
OVCAR-3 ovarian = tested on: OVCAR-3 ovarian
SK-MEL-28 melanoma = tested on: SK-MEL-28 melanoma
MOLT-4 leukemia = tested on: MOLT-4 leukemia
RXF 393 renal = tested on: RXF 393 renal
SN12C renal = tested on: SN12C renal
TK-10 renal = tested on: TK-10 renal
SF-539 CNS = tested on: SF-539 CNS
SR leukemia = tested on: SR leukemia
NCI-H522 lung = tested on: NCI-H522 lung
PC-3 prostate = tested on: PC-3 prostate
M14 melanoma = tested on: M14 melanoma
UACC-62 melanoma = tested on: UACC-62 melanoma
SK-OV-3 ovarian = tested on: SK-OV-3 ovarian
T-47D breast = tested on: T-47D breast
SK-MEL-2 melanoma = tested on: SK-MEL-2 melanoma
SF-268 CNS = tested on: SF-268 CNS

## C=CCn1c(=O)c(C(=O)Nc2nc(C34CC5CC(CC(C5)C3)C4)cs2)c(O)c2ccccc21
OVCAR-5 ovarian
  TGI: > 100 µM
RPMI-8226 leukemia
  TGI: 87.5 µM
A549 NSCLC
  TGI: 45.1 µM
CAKI-1 renal
  TGI: > 100 µM
SK-MEL-5 melanoma
  TGI: > 100 µM
SNB-19 CNS
  TGI: > 100 µM
NCI-H226 lung
  TGI: > 100 µM
SNB-75 CNS
  TGI: > 100 µM
MDA-N
  TGI: > 100 µM
NCI/ADR-RES ovarian
  TGI: 76.6 µM
CCRF-CEM leukemia
  TGI: > 100 µM
HL-60(TB) leukemia
  TGI: 65.6 µM
MCF7 breast
  TGI: > 100 µM
SW-620 colon
  TGI: > 100 µM
A498 renal
  TGI: > 100 µM
NCI-H23 lung
  TGI: > 100 µM
EKVX NSCLC
  TGI: > 100 µM
KM12 colon
  TGI: > 100 µM
MDA-MB-435
  TGI: > 100 µM
LOX IMVI melanoma
  TGI: > 100 µM
K-562 leukemia
  TGI: > 100 µM
HCC-2998 colon
  TGI: > 100 µM
SF-295 CNS
  TGI: 40.7 µM
HCT-116 colon
  TGI: > 100 µM
NCI-H460 lung
  TGI: > 100 µM
OVCAR-8 ovarian
  TGI: > 100 µM
MDA-MB-231 breast
  TGI: > 100 µM
IGROV1 ovarian
  TGI: > 100 µM
HT29 colon
  TGI: > 100 µM
DU-145 prostate
  TGI: > 100 µM
OVCAR-4 ovarian
  TGI: > 100 µM
U251 CNS
  TGI: > 100 µM
786-0 renal
  TGI: > 100 µM
HCT-15 colon
  TGI: > 100 µM
HOP-62 NSCLC
  TGI: > 100 µM
UACC-257 melanoma
  TGI: 22.4 µM
ACHN renal
  TGI: > 100 µM
UO-31 renal
  TGI: > 100 µM
MALME-3M melanoma
  TGI: > 100 µM
COLO 205 colon
  TGI: > 100 µM
HOP-92 NSCLC
  TGI: 84.4 µM
HS 578T breast
  TGI: > 100 µM
BT-549 breast
  TGI: > 100 µM
OVCAR-3 ovarian
  TGI: > 100 µM
SK-MEL-28 melanoma
  TGI: > 100 µM
MOLT-4 leukemia
  TGI: > 100 µM
RXF 393 renal
  TGI: > 100 µM
SN12C renal
  TGI: > 100 µM
TK-10 renal
  TGI: > 100 µM
SF-539 CNS
  TGI: > 100 µM
SR leukemia
  TGI: > 100 µM
NCI-H522 lung
  TGI: > 100 µM
PC-3 prostate
  TGI: > 100 µM

## Cc1ccc(S(=O)(=O)n2c3c(c4ccccc42)CCN2C[C@H]([C@H](C)Br)CC[C@@H]32)cc1
OVCAR-5 ovarian
  TGI: > 100 µM
RPMI-8226 leukemia
  TGI: > 100 µM
A549 NSCLC
  TGI: > 100 µM
CAKI-1 renal
  TGI: > 100 µM
SK-MEL-5 melanoma
  TGI: > 100 µM
SNB-19 CNS
  TGI: > 100 µM
NCI-H226 lung
  TGI: > 100 µM
SNB-75 CNS
  TGI: > 100 µM
MDA-N
  TGI: > 100 µM
NCI/ADR-RES ovarian
  TGI: > 100 µM
CCRF-CEM leukemia
  TGI: > 100 µM
HL-60(TB) leukemia
  TGI: > 100 µM
M14 melanoma
  TGI: > 100 µM
MCF7 breast
  TGI: > 100 µM
SW-620 colon
  TGI: > 100 µM
A498 renal
  TGI: > 100 µM
NCI-H23 lung
  TGI: > 100 µM
EKVX NSCLC
  TGI: > 100 µM
KM12 colon
  TGI: > 100 µM
MDA-MB-435
  TGI: > 100 µM
LOX IMVI melanoma
  TGI: > 100 µM
K-562 leukemia
  TGI: > 100 µM
HCC-2998 colon
  TGI: > 100 µM
UACC-62 melanoma
  TGI: > 100 µM
SF-295 CNS
  TGI: > 100 µM
NCI-H460 lung
  TGI: > 100 µM
OVCAR-8 ovarian
  TGI: > 100 µM
SK-OV-3 ovarian
  TGI: > 100 µM
MDA-MB-231 breast
  TGI: > 100 µM
T-47D breast
  TGI: > 100 µM
IGROV1 ovarian
  TGI: > 100 µM
HT29 colon
  TGI: > 100 µM
DU-145 prostate
  TGI: > 100 µM
SK-MEL-2 melanoma
  TGI: > 100 µM
OVCAR-4 ovarian
  TGI: > 100 µM
U251 CNS
  TGI: > 100 µM
786-0 renal
  TGI: > 100 µM
HCT-15 colon
  TGI: > 100 µM
HOP-62 NSCLC
  TGI: > 100 µM
UACC-257 melanoma
  TGI: > 100 µM
ACHN renal
  TGI: > 100 µM
UO-31 renal
  TGI: > 100 µM
MALME-3M melanoma
  TGI: > 100 µM
COLO 205 colon
  TGI: > 100 µM
HOP-92 NSCLC
  TGI: > 100 µM
OVCAR-3 ovarian
  TGI: > 100 µM
SK-MEL-28 melanoma
  TGI: > 100 µM
MOLT-4 leukemia
  TGI: > 100 µM
RXF 393 renal
  TGI: > 100 µM
SF-268 CNS
  TGI: > 100 µM
TK-10 renal
  TGI: > 100 µM
SF-539 CNS
  TGI: > 100 µM
SR leukemia
  TGI: > 100 µM
NCI-H522 lung
  TGI: > 100 µM
PC-3 prostate
  TGI: > 100 µM
